For one data set, the system named is A-549. As to the kind of experiment: In vitro cytotoxicity, SRB assay, lung cancer cell line A-549. It counts as cell-based, human. To be noted: Homo sapiens, A549; A-549 (lung), 10 μM, 48 h exposure; read-out: % of growth inhibition. From the text:
(§1) The benzothiazole hybrids has been tested against seven human tumor cell lines derived from six cancer types (lung cancer, colon cancer, CNS cancer, ovarian cancer, prostate cancer and breast cancer). For these compounds results are expressed as percent of cell growth inhibition relative to that of untreated control cells.
Background: Sulforhodamine B stains cellular protein and so reports cell mass.

The test system of another data set is IGR-OV-1. As to the kind of experiment: In vitro cytotoxicity, SRB assay, ovarian cancer cell line IGR-OV-1. It counts as cell-based, human. To be noted: Homo sapiens, IGROV-1; IGR-OV-1 (ovarian), 10 μM, 48 h exposure; read-out: % of growth inhibition.
Text: as §1

In another data set the test system is SW-620. As to the kind of experiment: In vitro cytotoxicity, SRB assay, colon cancer cell line SW-620. It counts as cell-based. To be noted: Homo sapiens, SW-620 (colon), 48 h exposure, read-out: % of growth inhibition. On the procedure:
(§2) The benzothiazole hybrids has been tested against seven human tumor cell lines derived from six cancer types (lung cancer, colon cancer, CNS cancer, ovarian cancer, prostate cancer and breast cancer). For these compounds results are expressed as percent of cell growth inhibition relative to that of untreated control cells. A protocol of 48 h continuous drug exposure has been used, and a sulforhodamine B (SRB) protein assay was used to estimate cell viability or growth.
(§3) The compounds 9b, 9h, 9m, 9r, 15c, 15h, 15m, 15r, 10b, 10h, 10m, 10r, 16c, 16h and 16m were evaluated for in vitro anticancer activity against seven human tumor cells derived from six cancer types (lung cancer, colon cancer, CNS cancer, ovarian cancer, prostate cancer and breast cancer) at concentration of 10 μM and the results are shown in Table 1.

In another data set the test system is PC-3. As to the kind of experiment: In vitro cytotoxicity, SRB assay, prostate cancer cell line PC-3. It counts as cell-based, human. To be noted: Homo sapiens; PC-3 (prostate), 10 μM, 48 h exposure; read-out: % of growth inhibition.
Text: as §1

The test system of a further data set is MCF7. As to the kind of experiment: In vitro cytotoxicity, SRB assay, breast cancer cell line MCF7. It counts as cell-based, human. To be noted: Homo sapiens, 10 μM, 48 h exposure, read-out: % of growth inhibition.
Text: as §1

The test system of a further data set is SF-295. As to the kind of experiment: In vitro cytotoxicity, SRB assay, CNS cancer cell line SF-295. It counts as cell-based, human. To be noted: Homo sapiens; SF-295 (CNS), 10 μM, 48 h exposure; read-out: % of growth inhibition.
Text: as §1

The test system of another data set is human tumor cell lines. As to the kind of experiment: In vitro anticancer activity, panel of seven human tumor cell lines (SRB assay). It counts as cell-based. To be noted: for inhibition at 10 µM: Homo sapiens, range over the cell lines, exposure period of at least 48 hrs, read-out: percentage growth inhibition for invitro anticancer activity; for cytotoxic activity in words: various human tumour cell lines. On the procedure: as §2, §3

The values below come from patent publication US8921552B2, “Benzothiazole hybrids useful as anticancer agents and process for the preparation thereof” (Council of Scientific & Industrial Research, priority 2011, dated 2014).

Regarding `COc1cc(-c2nc3ccccc3s2)ccc1OCCCCN1CCN(CCCCOc2cc(/C=C\c3cc(OC)c(OC)c(OC)c3)ccc2OC)CC1` [Compound 15c, 2-[3-methoxy-4-({4-[4-(4-{2-methoxy-5-[(Z)-2-(3,4,5-trimethoxyphenyl)-1-ethenyl]phenoxy}butyl)piperazino]butyl}oxy)phenyl]-1,3-benzothiazole], the inhibition – broadly, how much of the control response was suppressed – at 10 µM in the data set with A-549 was found to be 88%; in the data set with IGR-OV-1, 95%; with SW-620, 86%; with PC-3, 53%; in the data set on MCF7, 95%; with SF-295, 99%. In the data set with human tumor cell lines, the inhibition at 10 µM is 1 to 100%. Also, the “cytotoxic activity in words” value with human tumor cell lines is on record as “increase in activity”.

`COc1cc(-c2nc3ccccc3s2)ccc1OCCCCN1CCN(CCCCOc2cc(/C=C/C(=O)c3cc(OC)c(OC)c(OC)c3)ccc2OC)CC1` [Compound 16c, (E)-3-(3{-[4-(4-{4-[4-(1,3-benzothiazol-2-yl)-2-methoxyphenoxy]butyl}piperazino)butyl]oxy}-4-methoxyphenyl)-1-(3,4,5-trimethoxyphenyl)-2-propen-1-one]: the inhibition at 10 µM amounted to 58% with A-549; 67% in the data set on IGR-OV-1; 0% in the data set on SW-620; 24% in the data set on PC-3; 69% in the data set with MCF7; 24% in the data set with SF-295. In the data set with human tumor cell lines, the inhibition at 10 µM lay within 1 to 100%.

For the molecule `COc1ccc(/C=C\c2cc(OC)c(OC)c(OC)c2)cc1OCCCCN1CCN(CCCCOc2cc(-c3nc4ccccc4s3)ccc2OC)CC1` [Compound 15m, 2-[4-methoxy-3-({4-[4-(4-{2-methoxy-5-[(Z)-2-(3,4,5-trimethoxyphenyl)-1-ethenyl]phenoxy}butyl)piperazino]butyl}oxy)phenyl]-1,3-benzothiazole], the inhibition at 10 µM is 100% in the data set on A-549; 99% with IGR-OV-1; 99% in the data set with SW-620; 60% with PC-3; 97% in the data set with MCF7; 98% with SF-295. The inhibition at 10 µM with human tumor cell lines fell in the range of 1 to 100%. For the same molecule, the “cytotoxic activity in words” value with human tumor cell lines is given as “increase in activity”.

On to `COc1ccc(/C=C/C(=O)c2cc(OC)c(OC)c(OC)c2)cc1OCCCCOc1ccc(-c2nc3ccccc3s2)cc1` [Compound 10h, (E)-3-(3-{4-[4-(1,3-benzothiazol-2-yl)phenoxy]butoxy}-4-methoxyphenyl)-1-(3,4,5-trimethoxyphenyl)-2-propen-1-one], for which the inhibition at 10 µM in the data set on A-549 was 31%; in the data set with IGR-OV-1 it was 17%; in the data set with SW-620, 2%; in the data set with PC-3 it was 6%; with MCF7 it was 9%; in the data set with SF-295, 38%. Besides, in the data set with human tumor cell lines, the inhibition at 10 µM was 1 to 100%.

Regarding `COc1ccc(/C=C/C(=O)c2cc(OC)c(OC)c(OC)c2)cc1OCCCCN1CCN(CCCCOc2ccc(-c3nc4ccccc4s3)cc2)CC1` [Compound 16h, (E)-3-(3{-[4-(4-{4-[4-(1,3-benzothiazol-2-yl)phenoxy]butyl}piperazino)butyl]oxy}-4-methoxyphenyl)-1-(3,4,5-trimethoxyphenyl)-2-propen-1-one], the inhibition at 10 µM in the data set with A-549 turned out to be 59%; in the data set with IGR-OV-1, 73%; in the data set with SW-620, 0%; with PC-3, 67%; with MCF7 it was 84%; in the data set on SF-295 it was 63%. The inhibition at 10 µM in the data set on human tumor cell lines is 1 to 100%.

As for `COc1ccc(/C=C/C(=O)c2cc(OC)c(OC)c(OC)c2)cc1OCCCCN1CCN(CCCCOc2cc(-c3nc4ccccc4s3)ccc2OC)CC1` [Compound 16m, (E)-3-(3{-[4-(4-{4-[5-(1,3-benzothiazol-2-yl)-2-methoxyphenoxy]butyl}piperazino)butyl]oxy}-4-methoxyphenyl)-1-(3,4,5-trimethoxyphenyl)-2-propen-1-one], the inhibition at 10 µM with A-549 worked out at 100%; in the data set on IGR-OV-1, 85%; with SW-620, 0%; in the data set on PC-3, 2%; in the data set on MCF7 it was 57%; with SF-295, 15%. In addition, the inhibition at 10 µM in the data set on human tumor cell lines lay in the range of 1 to 100%.

As for `COc1ccc(/C=C\c2cc(OC)c(OC)c(OC)c2)cc1OCCCCN1CCN(CCCCOc2cccc(-c3nc4ccccc4s3)c2)CC1` [Compound 15r, 2-[3-({4-[4-(4{-2-methoxy-5-[(Z)-2-(3,4,5-trimethoxyphenyl)-1-ethenyl]phenoxy}butyl)piperazino]butyl}oxy)phenyl]-1,3-benzothiazole], the inhibition at 10 µM with A-549 worked out at 96%; in the data set on IGR-OV-1, 92%; in the data set on SW-620, 99%; in the data set on PC-3, 70%; in the data set on MCF7, 88%; in the data set on SF-295 it was 98%. Further, the inhibition at 10 µM with human tumor cell lines fell in the range of 1 to 100%. In addition, in the data set on human tumor cell lines, the “cytotoxic activity in words” value is recorded as “increase in activity”.

With `COc1ccc(/C=C\c2cc(OC)c(OC)c(OC)c2)cc1OCCCCN1CCN(CCCCOc2ccc(-c3nc4ccccc4s3)cc2)CC1` [Compound 15h, 2-[4-({4-[4-(4-{2-methoxy-5-[(Z)-2-(3,4,5-trimethoxyphenyl)-1-ethenyl]phenoxy}butyl)piperazino]butyl}oxy)phenyl]-1,3-benzothiazole], the inhibition at 10 µM with A-549 was 91%; with IGR-OV-1, 83%; in the data set with SW-620, 72%; in the data set with PC-3, 96%; in the data set with MCF7, 93%; in the data set with SF-295 it was 98%. For the same molecule, the inhibition at 10 µM with human tumor cell lines lay in the range of 1 to 100%. In the data set on human tumor cell lines, the “cytotoxic activity in words” value was “increase in activity”.

As to `COc1ccc(/C=C\c2cc(OC)c(OC)c(OC)c2)cc1OCCCCOc1cccc(-c2nc3ccccc3s2)c1` [Compound 9r, 2-[3-(4-{2-methoxy-5-[(Z)-2-(3,4,5-trimethoxyphenyl)-1-ethenyl]phenoxy}butoxy)phenyl]-1,3-benzothiazole], the inhibition at 10 µM with A-549 turned out to be 59%; in the data set on IGR-OV-1, 48%; in the data set with SW-620 it was 22%; in the data set with PC-3 it was 59%; with MCF7 it was 52%; with SF-295, 71%. Besides, the inhibition at 10 µM in the data set with human tumor cell lines was 1 to 100%.

As for `COc1cc(-c2nc3ccccc3s2)ccc1OCCCOc1cc(/C=C/C(=O)c2cc(OC)c(OC)c(OC)c2)ccc1OC` [Compound 10b, (E)-3-(3-{3-[4-(1,3-benzothiazol-2-yl)-2-methoxyphenoxy]propoxy}-4-methoxyphenyl)-1-(3,4,5-trimethoxyphenyl)-2-propen-1-one], the inhibition at 10 µM in the data set on A-549 is 66%; with IGR-OV-1, 21%; in the data set on SW-620, 0%; with PC-3, 5%; in the data set with MCF7, 19%; in the data set on SF-295 it was 51%. The inhibition at 10 µM with human tumor cell lines fell in the range of 1 to 100%.

Consider `COc1ccc(/C=C/C(=O)c2cc(OC)c(OC)c(OC)c2)cc1OCCCCOc1cc(-c2nc3ccccc3s2)ccc1OC` [Compound 10m, (E)-3-(3-{4-[5-(1,3-benzothiazol-2-yl)-2-methoxyphenoxy]butoxy}-4-methoxyphenyl)-1-(3,4,5-trimethoxyphenyl)-2-propen-1-one], for which the inhibition at 10 µM with A-549 came out at 7%; in the data set on IGR-OV-1 it was 17%; in the data set with SW-620, 27%; in the data set with PC-3, 0%; in the data set on MCF7 it was 24%; in the data set with SF-295, 14%. Moreover, the inhibition at 10 µM with human tumor cell lines was in the range of 1 to 100%.

Consider `COc1ccc(/C=C/C(=O)c2cc(OC)c(OC)c(OC)c2)cc1OCCCCOc1cccc(-c2nc3ccccc3s2)c1` [Compound 10r, (E)-3-(3-{4-[3-(1,3-benzothiazol-2-yl)phenoxy]butoxy}-4-methoxyphenyl)-1-(3,4,5-trimethoxyphenyl)-2-propen-1-one], for which the inhibition at 10 µM was 41% in the data set on A-549; 0% in the data set with IGR-OV-1; 0% in the data set with SW-620; 1% in the data set on PC-3; 14% in the data set on MCF7; 21% in the data set on SF-295. Besides, the inhibition at 10 µM with human tumor cell lines was in the range of 1 to 100%.
